Results reported in PMC10436550, “Subacute toxicity evaluations of LPM3480392 in rats, a full µ-opioid receptor biased agonist” (Frontiers in Pharmacology, 2023).

Test system: Sprague Dawley (SD) rats
Experiment: Organ weight and ratios, 4-week subacute toxicity study
Type: in vivo, rat
Description: Complete gross necropsies were conducted on all surviving animals at the end of treatment (the day after the last dosing) and recovery periods. The following selected organs were weighed and evaluated in terms of organ/body or organ/brain weight ratios: brain, kidneys, adrenals, testes, ovaries, uterus, epididymides, thymus, spleen, heart and liver. Paired organs were weighed together. Organ-to-body weight ratio = Organ weight(g)/Body weight(g) × 100%, and Organ-to-brain weight ratio = Organ weight(g)/Brain weight(g) × 100%.

[1] = female rats, 0.6 mg/kg/day, End of dosing phase
[2] = female rats, 0.6 mg/kg/day, End of recovery phase
[3] = female rats, 1.2 mg/kg/day, End of dosing phase
[4] = female rats, 1.2 mg/kg/day, End of recovery phase
[5] = female rats, 2.4 mg/kg/day, End of dosing phase
[6] = female rats, 2.4 mg/kg/day, End of recovery phase
[7] = male rats, 0.6 mg/kg/day, End of dosing phase
[8] = male rats, 0.6 mg/kg/day, End of recovery phase

Fc1ccc([C@]2(CCNCc3cccc(Cl)c3)CCO[C@]3(CCOC3)C2)nc1 [LPM3480392]
Organ weight, Brain [1]: 1.862 ± 0.102 g | Organ weight, Kidney [1]: 1.501 ± 0.123 g | Organ weight, Spleen [1]: 0.646 ± 0.159 g | Organ weight, Thymus [1]: 0.402 ± 0.053 g | Organ-to-body weight ratio, Brain [1]: 0.875 ± 0.063 % | Organ-to-body weight ratio, Kidney [1]: 0.704 ± 0.037% | Organ-to-body weight ratio, Spleen [1]: 0.301 ± 0.065% | Organ-to-body weight ratio, Thymus [1]: 0.189 ± 0.028% | Organ-to-brain weight ratio, Adrenal gland [1]: 3.21 ± 0.59% | Organ-to-brain weight ratio, Kidney [1]: 80.71 ± 6.29% | Organ-to-brain weight ratio, Spleen [1]: 34.73 ± 8.54% | Organ-to-brain weight ratio, Thymus [1]: 21.61 ± 3.02% | Terminal BW [1]: 213.5 ± 15.3 g | Organ weight, Brain [2]: 2.018 ± 0.046 g | Organ weight, Kidney [2]: 1.626 ± 0.142 g | Organ weight, Spleen [2]: 0.530 ± 0.085 g | Organ weight, Thymus [2]: 0.308 ± 0.055 g | Organ-to-body weight ratio, Brain [2]: 0.804 ± 0.031% | Organ-to-body weight ratio, Kidney [2]: 0.647 ± 0.043% | Organ-to-body weight ratio, Spleen [2]: 0.210 ± 0.030% | Organ-to-body weight ratio, Thymus [2]: 0.122 ± 0.019% | Organ-to-brain weight ratio, Adrenal gland [2]: 2.91 ± 0.20% | Organ-to-brain weight ratio, Kidney [2]: 80.51 ± 6.21% | Organ-to-brain weight ratio, Spleen [2]: 26.23 ± 4.03% | Organ-to-brain weight ratio, Thymus [2]: 15.21 ± 2.43% | Terminal BW [2]: 251.2 ± 9.7 g | Organ weight, Brain [3]: 1.916 ± 0.096 g | Organ weight, Kidney [3]: 1.518 ± 0.127 g | Organ weight, Spleen [3]: 0.637 ± 0.078 g | Organ weight, Thymus [3]: 0.380 ± 0.046 g | Organ-to-body weight ratio, Brain [3]: 0.881 ± 0.039 % | Organ-to-body weight ratio, Kidney [3]: 0.697 ± 0.044% | Organ-to-body weight ratio, Spleen [3]: 0.294 ± 0.042% | Organ-to-body weight ratio, Thymus [3]: 0.175 ± 0.026% | Organ-to-brain weight ratio, Adrenal gland [3]: 2.89 ± 0.37% | Organ-to-brain weight ratio, Kidney [3]: 79.14 ± 3.61% | Organ-to-brain weight ratio, Spleen [3]: 33.29 ± 3.96% | Organ-to-brain weight ratio, Thymus [3]: 19.90 ± 2.88% | Terminal BW [3]: 217.8 ± 15.0 g | Organ weight, Brain [4]: 1.990 ± 0.086 g | Organ weight, Kidney [4]: 1.567 ± 0.165 g | Organ weight, Spleen [4]: 0.574 ± 0.056 g | Organ weight, Thymus [4]: 0.297 ± 0.056 g | Organ-to-body weight ratio, Brain [4]: 0.802 ± 0.031% | Organ-to-body weight ratio, Kidney [4]: 0.630 ± 0.037% | Organ-to-body weight ratio, Spleen [4]: 0.231 ± 0.016% | Organ-to-body weight ratio, Thymus [4]: 0.120 ± 0.023% | Organ-to-brain weight ratio, Adrenal gland [4]: 2.68 ± 0.38% | Organ-to-brain weight ratio, Kidney [4]: 78.65 ± 6.18% | Organ-to-brain weight ratio, Spleen [4]: 28.83 ± 2.34% | Organ-to-brain weight ratio, Thymus [4]: 14.89 ± 2.48% | Terminal BW [4]: 248.4 ± 12.5 g | Organ weight, Brain [5]: 1.958 ± 0.105 g | Organ weight, Kidney [5]: 1.549 ± 0.122 g | Organ weight, Spleen [5]: 0.616 ± 0.144 g | Organ weight, Thymus [5]: 0.339 ± 0.075 g | Organ-to-body weight ratio, Brain [5]: 0.943 ± 0.055% | Organ-to-body weight ratio, Kidney [5]: 0.746 ± 0.049% | Organ-to-body weight ratio, Spleen [5]: 0.294 ± 0.049% | Organ-to-body weight ratio, Thymus [5]: 0.162 ± 0.031% | Organ-to-brain weight ratio, Adrenal gland [5]: 2.88 ± 0.24% | Organ-to-brain weight ratio, Kidney [5]: 79.23 ± 6.43% | Organ-to-brain weight ratio, Spleen [5]: 31.37 ± 6.57% | Organ-to-brain weight ratio, Thymus [5]: 17.23 ± 3.33% | Terminal BW [5]: 208.0 ± 14.6 g | Organ weight, Brain [6]: 2.075 ± 0.093 g | Organ weight, Kidney [6]: 1.554 ± 0.133 g | Organ weight, Spleen [6]: 0.502 ± 0.064 g | Organ weight, Thymus [6]: 0.331 ± 0.135 g | Organ-to-body weight ratio, Brain [6]: 0.856 ± 0.093% | Organ-to-body weight ratio, Kidney [6]: 0.637 ± 0.024% | Organ-to-body weight ratio, Spleen [6]: 0.206 ± 0.027% | Organ-to-body weight ratio, Thymus [6]: 0.135 ± 0.047% | Organ-to-brain weight ratio, Adrenal gland [6]: 2.71 ± 0.42% | Organ-to-brain weight ratio, Kidney [6]: 75.09 ± 8.25% | Organ-to-brain weight ratio, Spleen [6]: 24.11 ± 2.01% | Organ-to-brain weight ratio, Thymus [6]: 16.14 ± 7.16% | Terminal BW [6]: 244.2 ± 24.2 g | Organ weight, Adrenal gland [7]: 0.052 ± 0.011 g | Organ weight, Brain [7]: 2.094 ± 0.050 g | Organ weight, Epididymis [7]: 0.977 ± 0.089 g | Organ weight, Heart [7]: 1.289 ± 0.102 g | Organ weight, Liver [7]: 8.125 ± 0.587 g | Organ weight, Spleen [7]: 0.741 ± 0.128 g | Organ weight, Thymus [7]: 0.477 ± 0.062 g | Organ-to-body weight ratio, Adrenal gland [7]: 0.016 ± 0.003% | Organ-to-body weight ratio, Brain [7]: 0.650 ± 0.035% | Organ-to-body weight ratio, Epididymis [7]: 0.303 ± 0.028% | Organ-to-body weight ratio, Heart [7]: 0.399 ± 0.028 % | Organ-to-body weight ratio, Liver [7]: 2.516 ± 0.108% | Organ-to-body weight ratio, Spleen [7]: 0.229 ± 0.030% | Organ-to-body weight ratio, Thymus [7]: 0.147 ± 0.016% | Organ-to-brain weight ratio, Adrenal gland [7]: 2.50 ± 0.58% | Organ-to-brain weight ratio, Epididymis [7]: 46.67 ± 4.12% | Organ-to-brain weight ratio, Heart [7]: 61.61 ± 5.76% | Organ-to-brain weight ratio, Liver [7]: 388.28 ± 30.51% | Organ-to-brain weight ratio, Spleen [7]: 35.42 ± 6.22% | Organ-to-brain weight ratio, Thymus [7]: 22.74 ± 2.77% | Terminal BW [7]: 322.9 ± 16.9 g | Organ weight, Adrenal gland [8]: 0.057 ± 0.008 g | Organ weight, Brain [8]: 2.262 ± 0.071 g | Organ weight, Epididymis [8]: 1.432 ± 0.140 g
